The target in assay [1] is T1, RNF14 (Homo sapiens, UniProt Q9UBS8).
T1 sequence (Q9UBS8 1-474): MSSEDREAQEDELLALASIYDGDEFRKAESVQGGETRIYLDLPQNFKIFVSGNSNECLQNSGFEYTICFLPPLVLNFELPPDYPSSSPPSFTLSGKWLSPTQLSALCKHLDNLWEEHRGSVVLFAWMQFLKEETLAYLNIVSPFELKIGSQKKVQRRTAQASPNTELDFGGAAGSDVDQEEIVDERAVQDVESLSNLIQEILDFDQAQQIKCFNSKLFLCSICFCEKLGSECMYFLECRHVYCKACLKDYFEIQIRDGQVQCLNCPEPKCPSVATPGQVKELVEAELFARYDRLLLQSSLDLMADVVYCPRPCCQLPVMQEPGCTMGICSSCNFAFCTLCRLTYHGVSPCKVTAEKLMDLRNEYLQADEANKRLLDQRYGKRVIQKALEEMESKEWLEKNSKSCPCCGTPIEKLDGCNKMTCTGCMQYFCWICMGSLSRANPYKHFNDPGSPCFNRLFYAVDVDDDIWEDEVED
The experiment in a line: gel-ABPP and protein-directed ABPP in cells. Format: cell-based. Further details: RNF14-FLAG expressed in HEK293T cells.

The target in assay [2] is T1, RNF14. The experiment in a line: cysteine-directed ABPP (Glu-C) and competitive protein-directed ABPP in cells. Format: cell-based. The conditions noted are these: read-out: Competition (%). Set-up: endogenous RNF14 in Ramos cells; recombinant RNF14-FLAG in HEK293T cells.
In assay [3] the target is T2, TRMT112 (Homo sapiens, UniProt Q9NRN9+Q9UI30). The experiment in a line: intact MS kobs/[I] on purified complex; gel-ABPP and protein-directed ABPP in cells. Format: binding. Set-up: purified WT-TRMT112:His-METTL5 (intact MS); TRMT112-FLAG in HCT116 cells coexpressing HA-METTL5; with METTL5.
Assay [4] has as its target T3, UVRAG (Homo sapiens, UniProt Q9P2Y5).
T3 construct: endogenous protein in Ramos cells
T3 sequence (Q9P2Y5 1-699): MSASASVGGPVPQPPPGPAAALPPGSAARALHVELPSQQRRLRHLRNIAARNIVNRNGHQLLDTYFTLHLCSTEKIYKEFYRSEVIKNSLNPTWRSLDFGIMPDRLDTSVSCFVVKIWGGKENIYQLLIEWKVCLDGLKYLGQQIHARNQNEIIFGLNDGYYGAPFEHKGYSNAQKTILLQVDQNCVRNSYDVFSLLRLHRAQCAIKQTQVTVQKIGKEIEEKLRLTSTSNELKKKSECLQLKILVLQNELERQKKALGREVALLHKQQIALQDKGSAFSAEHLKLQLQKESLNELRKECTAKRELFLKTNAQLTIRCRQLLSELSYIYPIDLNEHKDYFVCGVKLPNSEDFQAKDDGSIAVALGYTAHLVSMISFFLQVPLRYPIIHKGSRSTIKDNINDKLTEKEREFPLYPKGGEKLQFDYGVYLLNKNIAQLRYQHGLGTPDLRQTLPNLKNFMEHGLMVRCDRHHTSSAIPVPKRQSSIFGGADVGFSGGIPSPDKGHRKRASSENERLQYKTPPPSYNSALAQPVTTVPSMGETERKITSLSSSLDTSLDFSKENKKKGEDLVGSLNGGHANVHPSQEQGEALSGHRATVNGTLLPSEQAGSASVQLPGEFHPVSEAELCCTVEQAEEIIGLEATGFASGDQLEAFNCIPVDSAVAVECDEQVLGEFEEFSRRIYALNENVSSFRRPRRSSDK
The experiment in a line: cysteine-directed and competitive protein-directed ABPP in cells. Format: cell-based. The conditions noted are these: read-out: Competition (%).

In assay [5] the target is T2, TRMT112. The experiment in a line: intact MS kobs/[I] on purified complex; competitive gel-ABPP in HCT116 cells (IC50). Further details: TRMT112-FLAG:HA-METTL5 in HCT116 cells (IC50); purified TRMT112:His-METTL5 (intact MS); with METTL5. Format: cell-based.
Assay [6] addresses T4, REEP5 (Homo sapiens, UniProt Q00765).
T4 construct: endogenous protein in Ramos cells
The experiment in a line: cysteine-directed and competitive protein-directed ABPP in cells. Format: cell-based. The conditions noted are these: read-out: Competition (%).

Assay [7] has as its target T2, TRMT112. The experiment in a line: […] A cocrystal structure; intact MS (kobs/[I][…] s-1); competitive gel-ABPP on purified complex. Format: binding. Set-up: full-length, tag-free TRMT112:METTL5 complex (crystal); TRMT112:His-METTL5 (IC50); with METTL5.
Assay [8] addresses T5, METTL5 (tag-free, of the tag-free TRMT112:METTL5 complex) (human, UniProt Q9NRN9 1-209).
T5 construct: METTL5, human, full-length gene codon-optimized for E. coli; same construct as His–METTL5, the His tag removed with TEV protease; By the printed primer a Ser would remain before the first Met after TEV cleavage; also called WT-METTL5; source: E. coli BL21 (DE3), coexpressed with TRMT112, purified (Ni-NTA, TEV cleavage, Ni-NTA, anion exchange, SEC); not shown: His tag, N-terminal, cleaved
The experiment in a line: crystal structure; tag-free TRMT112:METTL5 complex modified with FWG-33B in the presence of SAM; crystals in 21% PEG3350, 0.36 M ammonium sulfate, 0.1 M Bis–Tris pH 5.5, 4 °C; 1.3 Å. The conditions noted are these: both partners purified.

T2 sequence (Q9NRN9 whole entry, one chain of several): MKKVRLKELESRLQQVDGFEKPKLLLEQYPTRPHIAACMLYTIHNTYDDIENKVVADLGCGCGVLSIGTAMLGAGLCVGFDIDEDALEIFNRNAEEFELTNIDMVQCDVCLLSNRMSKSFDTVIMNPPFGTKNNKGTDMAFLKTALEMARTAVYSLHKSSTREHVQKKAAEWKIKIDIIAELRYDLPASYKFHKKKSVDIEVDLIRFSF
T4 sequence (Q00765 whole entry): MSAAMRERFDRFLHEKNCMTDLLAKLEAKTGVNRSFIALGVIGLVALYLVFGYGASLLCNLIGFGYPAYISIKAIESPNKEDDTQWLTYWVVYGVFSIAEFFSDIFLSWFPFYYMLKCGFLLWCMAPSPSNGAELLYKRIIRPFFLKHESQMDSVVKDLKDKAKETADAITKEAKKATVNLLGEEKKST
T5 sequence (Q9NRN9 whole entry, one chain of several): as the sequence (Q9NRN9 whole entry, one chain of several) above

As to `C#CCCC(=O)Nc1ccc(O[C@H]2C[C@H](c3cccc(OC)c3)[C@H]3CN(C(=O)C=C)C[C@H]32)cc1` [compound 16, FWG-4B], the “gel-ABPP and protein-directed ABPP in cells” value in assay [1] is “engagement of recombinant WT-RNF14-FLAG and C68A-RNF14-FLAG, but not C212A-RNF14-FLAG by FWG-4B”.

Turning to `C=CC(=O)N1C[C@@H]2[C@H](C1)[C@@H](c1cccc(OC)c1)C[C@@H]2Oc1ccc(NC(C)=O)cc1` [compound 12, FWG-2B], the inhibition at 50 µM in assay [2] is above 80%.

`C#CCCC(=O)Nc1ccc(O[C@@H]2C[C@H](c3cccc(OC)c3)[C@H]3CN(C(=O)C=C)C[C@H]32)cc1` [compound 14, FWG-3B]: in assay [3], the “intact MS kobs/[I] on purified complex; gel-ABPP and protein-directed ABPP in ce” value was “FWG-3B showed enhanced reactivity with TRMT112 exclusively in cells coexpressing the RNA MT METTL5”.

On to `C=CC(=O)N1C[C@@H]2[C@H](C1)[C@H](Oc1ccc(NC(C)=O)cc1)C[C@H]2c1cccc(OC)c1` [compound 11, FWG-2A], for which the inhibition at 50 µM in assay [4] was above 80%.

Consider `C=CC(=O)N1C[C@@H]2[C@H](C1)[C@@H](c1cccc(OC)c1)C[C@H]2Oc1ccc(NC(C)=O)cc1` [compound 10, FWG-1B], for which, in assay [5], the IC50 turned out to be 12 µM. Moreover, the inhibition at 50 µM in assay [6] was above 60%.

Regarding `C=CC(=O)N1C[C@@H]2[C@H](C1)[C@@H](c1cccc(Cl)c1)C[C@H]2Oc1ccc(NC(C)=O)cc1` [compound 22, FWG-33B], in assay [7], the IC50 was determined as 0.47 µM.

B1: TRMT112 modified by FWG-33B at C100 (of the FWG-33B-liganded tag-free TRMT112:METTL5 complex) (natural protein, human, UniProt Q9UI30 1-125, looked up)
chain: MKLLTHNLLSSHVRGVGSRGFPLRLQATEVRICPVEFNPNFVARMIPKVEWSAFLEAADNLRLIQVPKGPVEGYEENEEFLRTMHHLLLEVEVIEGTLQCPESGRMFPISRGIPNMLLSEEETES
modifications: covalent adduct between the acrylamide of FWG-33B and C100
notes: TRMT112, human, full-length gene codon-optimized for E. coli, in pACYCDuet-1; also called FWG-33B-modified TRMT112; source: E. coli BL21 (DE3), coexpressed with METTL5, purified as tag-free complex, then treated with 100 μM FWG-33B
In the case of B1, the binding result in assay [8] is on record as “binds”.

The values above are taken from paper PMC13128453, “Complexoform-restricted covalent TRMT112 ligands that allosterically agonize METTL5” (Nature Chemical Biology, 2025).
